Measurements: publication PMC5078989, “Targeted inhibition of the COP9 signalosome for treatment of cancer” (Nature Communications, 2016)

System: panel of cancer cell lines
Assay: Cell viability (CellTiter-Glo) dose-response across cancer cell line panel;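 on EC50: after 72 h compound incubation with CellTiter-Glo ATP readout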
Format: cell-based, human
Conditions: for EC50: Homo sapiens
From the text: Next, we explored the effect of CSN5 inhibition on the viability of cancer cells. To obtain a comprehensive picture, we generated dose–response curves with a CSN5 inhibitor across more than 500 cancer cell lines in a previously described standardized setting[47] (Supplementary Data 1).
A standardized CellTiter-Glo Assay (Promega #G7570) based on the quantification of ATP was applied according to the manufacturer's protocol to measure the amount of viable cells in culture. In brief, cells were seeded into 384-well plates at optimal density for each cell line. After 4 h, compounds were added at different concentrations in growth medium and incubated for another 72 h in a humidifying chamber at 37 °C and 5% CO2. […] EC50 values were calculated from the plot of percentage of inhibition versus inhibitor concentration using the nonlinear regression analysis software Origin 7.5SR6 (OriginLab Corp.).

EC50 (59M): 631 nM
EC50 (92.1): 213 nM
EC50 (639-V): 191 nM
EC50 697: 373 nM
EC50 (769-P): 199 nM
EC50 (786-0, 786-O): 373 nM
EC50 (1321-N1, 1321N1): 304 nM
EC50 (8505C): 271 nM
EC50 (A4/Fuk): 340 nM
EC50 (A101D): 403 nM
EC50 (A 172, A172): 180 nM
EC50 (A204, A-204): 267 nM
EC50 (A498, A-498): 245 nM
EC50 (A549, A549): 3600 nM
EC50 (A673, A-673): 88.1 nM
EC50 (A704, A-704): 622 nM
EC50 (A2058, A2058): 316 nM
EC50 (A2780, A2780): 330 nM
EC50 (A-375, A-375): 281 nM
EC50 (ACC-MESO-1, ACC-MESO-1): 1560 nM
EC50 (AM-38, AM-38): 297 nM
EC50 (AML-193): 901 nM
EC50 (AN3-CA, AN3 CA): 309 nM
EC50 (AU565, AU565): 505 nM
EC50 (BC-3C): 1970 nM
EC50 (BEN): 1100 nM
EC50 (BFTC-909, BFTC-909): 650 nM
EC50 (BHY): 1870 nM
EC50 (BICR 6): 181 nM
EC50 (BICR 16): 220 nM
EC50 (BICR 18): 11500 nM
EC50 (BICR 31): 156 nM
EC50 (BT-16, BT-16): 98 nM
EC50 (BT-474, BT-474): 871 nM
EC50 (BT-549, BT-549): 382 nM
EC50 (BXPC-3, BxPC-3): 530 nM
EC50 (C3A): > 30000 nM
EC50 (C32, C32): 1140 nM
EC50 (CAKI-1, Caki-1): 327 nM
EC50 (CAKI-2, Caki-2): 2360 nM
EC50 (CAL-12T): 1210 nM
EC50 (CAL-27, CAL 27): 161 nM
EC50 (CAL-29): 283 nM
EC50 (CAL-54, CAL-54): 772 nM
EC50 (CAL-85-1, CAL-85-1): 144 nM
EC50 (CAL-120, CAL-120): 154 nM
EC50 (CAL-148, CAL-148): > 30000 nM
EC50 (CAMA-1, CAMA-1): 94.3 nM
EC50 (CAPAN-1, Capan-1): 301 nM
EC50 (CAS-1): 14000 nM
EC50 (CCRF-HSB-2, CCRF-HSB-2): 296 nM
EC50 (CEM/C1, CEMC1): 257 nM
EC50 (CFPAC-1, CFPAC-1): 703 nM
EC50 (CL-34): 89.6 nM
EC50 (CMK): 138 nM
EC50 (CMK-86, CMK-86): 230 nM
EC50 (COLO 201, COLO 201): 268 nM
EC50 (COLO 205, COLO 205): 268 nM
EC50 (COLO 320, COLO-320): 883 nM
EC50 (COLO 699, COLO-699): 890 nM
EC50 (COLO 704, COLO-704): 384 nM
EC50 (COLO-678, COLO-678): 4890 nM
EC50 (COLO-679, COLO-679): 133 nM
EC50 (COLO-741, COLO 741): 130 nM
EC50 (COLO-829, COLO 829): 319 nM
EC50 (COR-L23, COR-L23): 1660 nM
EC50 (COR-L47, COR-L47): 49.6 nM
EC50 (COR-L105, COR-L105): 469 nM
EC50 (COV362, COV362): 175 nM
EC50 (COV644): 23600 nM
EC50 (CW-2, CW-2): 6310 nM
EC50 (Calu-1, Calu-1): 2340 nM
EC50 (Calu-6, Calu-6): 294 nM
EC50 (ChaGo-K-1, ChaGo-K-1): 778 nM
EC50 (Ci-1, CI-1): 28.2 nM
EC50 (DAN-G): 4140 nM
EC50 (DB): 732 nM
EC50 (DLD-1, DLD-1): 641 nM
EC50 (DMS-53, DMS 53): 22800 nM
EC50 (DMS-153, DMS 153): 42.9 nM
EC50 (DMS-273, DMS 273): 958 nM
EC50 (DND41, DND-41): 513 nM
EC50 (DU-4475, DU4475): 99.4 nM
EC50 (Daoy): 240 nM
EC50 (Detroit 562, Detroit 562): 478 nM
EC50 (EBC-1, EBC-1): 341 nM
EC50 (EFM-19, EFM-19): 1390 nM
EC50 (EOL1, EOL-1): 65.3 nM
EC50 (FaDu): 231 nM
EC50 (G-401, G-401): 1550 nM
EC50 (G-402, G-402): 811 nM
EC50 (GAMG): 373 nM
EC50 (GB-1, GB-1): 479 nM
EC50 (GDM-1, GDM-1): 188 nM
EC50 (GI-1, GI-1): 207 nM
EC50 (GP2d): 759 nM
EC50 (Granta-519, GRANTA-519): 117 nM
EC50 (H4): 229 nM
EC50 (HARA): 640 nM
EC50 (HCC15, HCC-15): 414 nM
EC50 (HCC44, HCC-44): 167 nM
EC50 (HCC78, HCC-78): 183 nM
EC50 (HCC95, HCC-95): 105 nM
EC50 (HCC827, HCC827): 7720 nM
EC50 (HCC1143, HCC1143): 1670 nM
EC50 (HCC1187, HCC1187): 348 nM
EC50 (HCC1500, HCC1500): 6580 nM
EC50 (HCC1588, HCC-1588): 1370 nM
EC50 (HCC1806, HCC1806): 70.1 nM
EC50 (HCC1954, HCC1954): 417 nM
EC50 (HCC4006, HCC4006): 1530 nM
EC50 (HCC-56): 2460 nM
EC50 (HCC-1359): 375 nM
EC50 (HCC-1833): 2350 nM
EC50 (HCT-15, HCT-15): 934 nM
EC50 (HD-MY-Z): 124 nM
EC50 (HEC-50B): 961 nM
EC50 (HEC-151): 225 nM
SMILES: NS(=O)(=O)OC[C@@H]1C[C@@H](n2ccc3c(N[C@H]4CCc5ccccc54)ncnc32)C[C@@H]1O [MLN4924]
AMAX (A4/Fuk): -96.9287
AMAX (A101D): -92.8172
AMAX (A549): -65.6237
AMAX (A-704): -78.0973
AMAX (AM-38): -93.2889
AMAX (AU565): -66.5254
AMAX (AsPC-1): -50.1525
AMAX (BFTC-909): -84.6841
AMAX (BHY): -77.3535
AMAX (BICR 6): -87.6265
AMAX (BICR 16): -96.2639
AMAX (C32): -75.1217
AMAX (COLO 201): -80.4634
AMAX (Caki-1): -69.6053
AMAX (FaDu): -85.8426
AMAX (GP2d): -76.2986
AMAX (HARA): -86.2104
AMAX (HCC1143): -80.6145
AMAX (HCC-15): -95.7573
AMAX (HD-MY-Z): -88.7975
AMAX (HEC-151): -95.1252
AMAX (HEL): -97.9201
AMAX (HLC-1): -88.3206
AMAX (HLF): -88.8149
AMAX (HSC-4): -89.1597
AMAX (Hep3B): -41.8233
EC50 (HCC70, HCC70): 390 nM
